From patent US20220305090A1, “HAIR GROWING AGENT AND FOOD OR BEVERAGE PRODUCT COMPRISING SAME” (NITTA GELATIN INC., priority 2019, published 2022) come the findings set out here.

For this test, the system named is human normal hair papilla cells HFDPC-C. The test can be described thus: Cell growth test on hair papilla cells (neutral red method, living cell number vs purified water control). It is filed as cell-based. To be noted: for Hair papilla cell growth promoting action (in words): conclusion from Tables 1, 2 and 4; for Growth rate control = 100: 72 hours culture. On the procedure:
First, human normal hair papilla cells HFDPC-C (manufactured by Takara Bio Inc.) were obtained, and the hair papilla cells were then seeded at 0.2×10^4/dish in each well of a 96-well plate for cell culture (manufactured by Corning Inc.). Further, 200 μL of a basal medium (trade name: “Follicle Dermal Papilla Cell Basal Medium”, manufactured by Takara Bio Inc.) containing a growth factor accompanying the obtained hair papilla cells was supplied to each well, and the hair papilla cells were precultured in each well at 37° C. for 24 hours.
Next, the hair papilla cells were confirmed to be subconfluent, and the basal medium in each well was then replaced by 200 μL of another basal medium (trade name: “Follicle Dermal Papilla Cell Basal Medium”, manufactured by Takara Bio Inc.) free of the growth factor described above. In this way, hair papilla cells to be used for determining whether or not addition of the above-described samples promote cell growth were prepared.
To the hair papilla cells prepared as described above, amino acids, combinations of amino acids, peptides and collagen peptide mixtures which are the samples described above were added at final concentrations shown in Tables 1 and 2, and the hair papilla cells were cultured in each well at 37° C. for 72 hours. Here, to one of the wells containing the hair papilla cells prepared as described above, 20 μL, of purified water was added, and as with other hair papilla cells, culturing was performed at 37° C. for 72 hours to prepare a control test sample (control). Thereafter, for each of the hair papilla cells in the wells containing purified water or the samples, the number of living cells (living cell number) was counted by a neutral red method. Here, the “neutral red method” is a method in which neutral red is added at a final concentration of 150 μg/mL into a well where cells are cultured, the cells are cultured for 20 minutes, and washed with PBS (phosphate buffer physiological saline), 200 μL of a 50 mass % ethanol solution containing 1 mass % acetic acid is added into the well as an extraction liquid, the mixture is stirred, and the absorbance of the well containing the neutral red is measured at a wavelength of 540 nm to measure the number of living cells in the well.
The number of living cells of hair papilla cells in the well containing the sample with respect to the number of living cells of hair pallia cells in the well containing purified water (control test sample) was determined as a cell growth rate (%) to evaluate the hair papilla cell growth promoting action in the sample. Further, the cell growth rate (%) was subjected to statistical processing to evaluate significance of the hair papilla cell growth promoting action in the sample. […] Thereafter, the Student's t-test (t-test) was conducted to evaluate significance. […] In Tables 1 and 2, samples with “++” were determined to have a significance in the hair papilla cell growth promoting action. In samples with “+”, the cell growth rate (%) exceeded 100.

[1] abbreviates: final concentration 0.05 mM, Table 4 (control test).
The mark [2] stands for this setting: final concentration 0.5 mM, Table 4 (control test).
Where [3] appears, read: final concentration 5 mM, Table 4 (control test).
Setting [4] is: final concentration 0.05 mM, Table 1.
Where [5] appears, read: final concentration 0.5 mM, Table 1.
The mark [6] stands for this setting: final concentration 5 mM, Table 1.

With `C[C@H](N)C(=O)O` [Ala, alanine, reference compound], the “Hair papilla cell growth promoting action (in words)” value is listed as “poor hair papilla cell growth promoting action”. In addition, the “Growth rate control = 100” value (final concentration 0.05 mM) is 94 ± 1%. Besides, the Assessment result under setting [1] is recorded as “−”. Also, the “Growth rate control = 100” value (final concentration 0.5 mM) amounted to 100 ± 8%. Also, the Assessment entry under setting [2] was “−”. Under “final concentration 5 mM”, the “Growth rate control = 100” value was determined as 95 ± 1%. In addition, under setting [3], the Assessment result is on record as “−”.
As to `N=C(N)NCCC[C@H](N)C(=O)O` [Arg, arginine, reference compound], the “Hair papilla cell growth promoting action (in words)” value is “poor hair papilla cell growth promoting action”. Moreover, the “Growth rate control = 100” value (final concentration 0.05 mM) is on record as 93 ± 6%. Further, the Assessment entry under setting [1] is “−”. Also, the “Growth rate control = 100” value (final concentration 0.5 mM) was 98 ± 3%. For the same molecule, the Assessment entry under setting [2] is listed as “−”. In addition, the “Growth rate control = 100” value (final concentration 5 mM) was found to be 101 ± 2%. For the same molecule, under setting [3], the Assessment result is “−”.
In the case of `NCC(=O)O.O=C(O)[C@@H]1CCCN1` [GP, glycine-proline], the “Hair papilla cell growth promoting action (in words)” value is given as “had a hair papilla cell growth promoting action”. For the same molecule, under “final concentration 0.05 mM”, the “Growth rate control = 100” value was determined as 105 ± 4%. In addition, the Assessment result under setting [4] was “+ (In samples with “+”, the cell growth rate (%) exceeded 100)”. Further, where the note is “final concentration 0.5 mM”, the “Growth rate control = 100” value was 109 ± 2%. The Assessment result under setting [5] is “++”. In addition, under “final concentration 5 mM”, the “Growth rate control = 100” value worked out at 114 ± 2%. The Assessment entry under setting [6] is reported as “++”.
In the case of `NC(=O)CC[C@H](N)C(=O)O` [Gln, glutamine, reference compound], the “Hair papilla cell growth promoting action (in words)” value is “poor hair papilla cell growth promoting action”. In addition, under “final concentration 0.05 mM”, the “Growth rate control = 100” value came out at 92 ± 2%. Further, the Assessment entry under setting [1] is given as “−”. Further, the “Growth rate control = 100” value (final concentration 0.5 mM) was determined as 94 ± 5%. Further, the Assessment entry under setting [2] is on record as “−”. For the same molecule, for the setting “final concentration 5 mM”, the “Growth rate control = 100” value came out at 100 ± 4%. Also, the Assessment result under setting [3] is given as “−”.
Turning to `O=C(O)[C@@H]1C[C@@H](O)CN1` [O, hydroxyproline], the “Hair papilla cell growth promoting action (in words)” value was “had a hair papilla cell growth promoting action”. Also, the “Growth rate control = 100” value (final concentration 0.05 mM) was determined as 114 ± 1%. For the same molecule, the Assessment result under setting [4] is reported as “++”. The “Growth rate control = 100” value (final concentration 0.5 mM) is recorded as 114 ± 3%. Under setting [5], the Assessment result was “++”. For the same molecule, the “Growth rate control = 100” value (final concentration 5 mM) was 110 ± 5%. Also, the Assessment entry under setting [6] is listed as “++”.
On to `NCC(=O)O.O=C(O)[C@@H]1CCCN1` [PG, proline-glycine], for which the “Hair papilla cell growth promoting action (in words)” value is recorded as “had a hair papilla cell growth promoting action”. Further, the “Growth rate control = 100” value (final concentration 0.05 mM) is listed as 120 ± 5%. The Assessment result under setting [4] was “++”. Also, where the note is “final concentration 0.5 mM”, the “Growth rate control = 100” value is given as 120 ± 1%. For the same molecule, the Assessment entry under setting [5] was “++”. Besides, the “Growth rate control = 100” value (final concentration 5 mM) was 120 ± 5%. The Assessment entry under setting [6] is listed as “++”.
Turning to `O=C(O)[C@@H]1CCCN1` [Pro, proline, reference compound], the “Hair papilla cell growth promoting action (in words)” value is reported as “poor hair papilla cell growth promoting action”. Moreover, the “Growth rate control = 100” value (final concentration 0.05 mM) worked out at 91 ± 4%. For the same molecule, the Assessment entry under setting [1] is given as “−”. Further, the “Growth rate control = 100” value (final concentration 0.5 mM) was determined as 93 ± 5%. Besides, the Assessment result under setting [2] is listed as “−”. In addition, where the note is “final concentration 5 mM”, the “Growth rate control = 100” value worked out at 96 ± 1%. The Assessment entry under setting [3] is listed as “−”.
Consider alanine-hydroxyproline-glycine [AOG], for which the “Hair papilla cell growth promoting action (in words)” value is “had a hair papilla cell growth promoting action”. In addition, the “Growth rate control = 100” value (final concentration 0.05 mM) was 127 ± 5%. In addition, the Assessment result under setting [4] is “++”. Further, under “final concentration 0.5 mM”, the “Growth rate control = 100” value amounted to 126 ± 2%. Besides, the Assessment entry under setting [5] is recorded as “++”. Further, the “Growth rate control = 100” value (final concentration 5 mM) came out at 119 ± 2%. Also, under setting [6], the Assessment result was “++”.
With glutamic acid-hydroxyproline [EO], the “Hair papilla cell growth promoting action (in words)” value was “had a hair papilla cell growth promoting action”. Besides, the “Growth rate control = 100” value (final concentration 0.05 mM) is recorded as 102 ± 6%. For the same molecule, under setting [4], the Assessment entry is “+ (In samples with “+”, the cell growth rate (%) exceeded 100)”. Where the note is “final concentration 0.5 mM”, the “Growth rate control = 100” value was determined as 109 ± 4%. Moreover, under setting [5], the Assessment entry is reported as “+ (In samples with “+”, the cell growth rate (%) exceeded 100)”.
As to “glutamic acid-hydroxyproline-glycine [EOG]”, the “Hair papilla cell growth promoting action (in words)” value is “had a hair papilla cell growth promoting action”. In addition, the “Growth rate control = 100” value (final concentration 0.05 mM) came to 126 ± 10%. For the same molecule, under setting [4], the Assessment entry is reported as “++”. Further, for the setting “final concentration 0.5 mM”, the “Growth rate control = 100” value came out at 131 ± 1%. Besides, the Assessment result under setting [5] is reported as “++”. Besides, the “Growth rate control = 100” value (final concentration 5 mM) amounted to 121 ± 8%. For the same molecule, the Assessment result under setting [6] was “++”.
On to glycine-proline-hydroxyproline [GPO], for which the “Hair papilla cell growth promoting action (in words)” value is reported as “had a hair papilla cell growth promoting action”. Also, under “final concentration 0.05 mM”, the “Growth rate control = 100” value came to 126 ± 3%. The Assessment result under setting [4] was “++”. Also, where the note is “final concentration 0.5 mM”, the “Growth rate control = 100” value came out at 125 ± 4%. In addition, the Assessment entry under setting [5] is reported as “++”. Where the note is “final concentration 5 mM”, the “Growth rate control = 100” value was 120 ± 4%. The Assessment entry under setting [6] is “++”.
For the molecule leucine-hydroxyproline [LO], the “Hair papilla cell growth promoting action (in words)” value is recorded as “had a hair papilla cell growth promoting action”. The “Growth rate control = 100” value (final concentration 0.05 mM) was found to be 104 ± 6%. The Assessment result under setting [4] was “+ (In samples with “+”, the cell growth rate (%) exceeded 100)”. The “Growth rate control = 100” value (final concentration 0.5 mM) was found to be 105 ± 2%. Under setting [5], the Assessment entry is “+ (In samples with “+”, the cell growth rate (%) exceeded 100)”. Further, under “final concentration 5 mM”, the “Growth rate control = 100” value is recorded as 104 ± 5%. The Assessment entry under setting [6] is on record as “+ (In samples with “+”, the cell growth rate (%) exceeded 100)”.
On to phenylalanine-hydroxyproline [FO], for which the “Hair papilla cell growth promoting action (in words)” value is recorded as “had a hair papilla cell growth promoting action”. Under “final concentration 0.05 mM”, the “Growth rate control = 100” value is on record as 104 ± 4%. For the same molecule, under setting [4], the Assessment entry is listed as “+ (In samples with “+”, the cell growth rate (%) exceeded 100)”. The “Growth rate control = 100” value (final concentration 0.5 mM) came to 106 ± 2%. Also, under setting [5], the Assessment entry is on record as “+ (In samples with “+”, the cell growth rate (%) exceeded 100)”. For the setting “final concentration 5 mM”, the “Growth rate control = 100” value came out at 104 ± 1%. Under setting [6], the Assessment entry is given as “++”.
For proline-alanine [PA], the “Hair papilla cell growth promoting action (in words)” value is given as “had a hair papilla cell growth promoting action”. For the same molecule, the “Growth rate control = 100” value (final concentration 0.05 mM) is 105 ± 2%. Further, under setting [4], the Assessment entry was “+ (In samples with “+”, the cell growth rate (%) exceeded 100)”. In addition, the “Growth rate control = 100” value (final concentration 0.5 mM) worked out at 111 ± 1%. Further, the Assessment result under setting [5] is given as “+ (In samples with “+”, the cell growth rate (%) exceeded 100)”. Besides, under “final concentration 5 mM”, the “Growth rate control = 100” value came to 107 ± 5%. For the same molecule, the Assessment result under setting [6] is given as “+ (In samples with “+”, the cell growth rate (%) exceeded 100)”.
Regarding proline-alanine-glycine [PAG], the “Hair papilla cell growth promoting action (in words)” value was “had a hair papilla cell growth promoting action”. The “Growth rate control = 100” value (final concentration 0.05 mM) was determined as 110 ± 4%. The Assessment entry under setting [4] is “+ (In samples with “+”, the cell growth rate (%) exceeded 100)”. In addition, the “Growth rate control = 100” value (final concentration 0.5 mM) came out at 113 ± 1%. In addition, the Assessment entry under setting [5] was “++”. Also, the “Growth rate control = 100” value (final concentration 5 mM) came to 115 ± 4%. The Assessment result under setting [6] is given as “++”.
Regarding proline-proline [PP], the “Hair papilla cell growth promoting action (in words)” value is “had a hair papilla cell growth promoting action”. Also, for the setting “final concentration 0.05 mM”, the “Growth rate control = 100” value was 116 ± 3%. In addition, under setting [4], the Assessment entry is reported as “++”. Moreover, the “Growth rate control = 100” value (final concentration 0.5 mM) amounted to 113 ± 6%. The Assessment result under setting [5] is “++”. Also, the “Growth rate control = 100” value (final concentration 5 mM) came to 109 ± 2%. Further, the Assessment result under setting [6] was “++”.
For the molecule serine-hydroxyproline-glycine [SOG], the “Hair papilla cell growth promoting action (in words)” value is given as “had a hair papilla cell growth promoting action”. Moreover, where the note is “final concentration 0.05 mM”, the “Growth rate control = 100” value was 113 ± 10%. Also, the Assessment entry under setting [4] was “+ (In samples with “+”, the cell growth rate (%) exceeded 100)”. Besides, the “Growth rate control = 100” value (final concentration 0.5 mM) is given as 116 ± 3%. In addition, the Assessment entry under setting [5] is “++”. Further, the “Growth rate control = 100” value (final concentration 5 mM) is 109 ± 2%. Further, the Assessment result under setting [6] is listed as “+ (In samples with “+”, the cell growth rate (%) exceeded 100)”.
